Source: patent publication US8575153B2 (Kowa Company, Ltd., priority 2008, dated 2013)
Structures can show the parent of a compound that is named as a salt.

Molecular target: Recombinant human JAK3 enzyme (JAK3 kinase region; Ala795-Ser1124) (Homo sapiens, UniProt P52333)
Experiment: JAK3 Kinase Assay (Kinase-Glo luminescent, ATP consumption)
Settings: read-out: Inhibition rate (%) of JAK3 kinase activity

Sequence of Recombinant human JAK3 enzyme (JAK3 kinase region; Ala795-Ser1124) (P52333 795-1124): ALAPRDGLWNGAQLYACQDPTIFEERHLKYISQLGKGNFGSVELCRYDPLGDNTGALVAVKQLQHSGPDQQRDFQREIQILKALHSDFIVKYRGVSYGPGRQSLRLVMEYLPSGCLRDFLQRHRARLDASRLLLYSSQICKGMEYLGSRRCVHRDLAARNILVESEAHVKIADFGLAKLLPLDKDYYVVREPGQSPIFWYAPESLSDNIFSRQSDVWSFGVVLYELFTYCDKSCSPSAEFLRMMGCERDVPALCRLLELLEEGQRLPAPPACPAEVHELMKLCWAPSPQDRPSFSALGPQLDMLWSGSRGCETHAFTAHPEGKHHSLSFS

Row | inhibition at 0.1 µM | inhibition at 1 µM | SMILES
1 | 78% | – | N#CCC(=O)N1CCN(c2ccc(Nc3cc(NCc4ccccc4)c(C(N)=O)cn3)cc2)CC1 [Example 262, 4-(benzylamino)-6-({4-[4-(cyanoacetyl)piperazin-1-yl]phenyl}amino)pyridine-3-carboxyamide]
2 | 77% | – | N#CCC(=O)N1CCN(c2ccc(Nc3cc(NCc4c(F)cccc4F)c(C(N)=O)cn3)cc2)CC1 [Example 266, 6-({4-[4-(cyanoacetyl)piperazin-1-yl]phenyl}amino)-4-[(2,6-difluorobenzyl)amino]pyridine-3-carboxyamide]
3 | 65% | – | N#CCC(=O)N1CCCN(c2ccc(Nc3cc(NCc4ccccc4)c(C(N)=O)cn3)cc2)CC1 [Example 268, 4-(benzylamino)-6-({4-[4-(cyanoacetyl)-1,4-diazepan-1-yl]phenyl}amino)pyridine-3-carboxyamide]
4 | 79% | – | CCN(CC)CC(=O)N1CCN(c2ccc(Nc3cc(NCc4ccccc4)c(C(N)=O)cn3)cc2)CC1 [Example 274, 4-(benzylamino)-6-({4-[4-(N,N-diethylglycyl)piperazin-1-yl]phenyl}amino)pyridine-3-carboxyamide]
5 | 89% | – | CCN(CC)C(=O)N1CCN(c2ccc(Nc3cc(NCc4ccccc4)c(C(N)=O)cn3)cc2)CC1 [Example 282, 4-(benzylamino)-6-({4-[(4-diethylcarbamoyl)piperazin-1-yl]phenyl}amino)pyridine-3-carboxyamide]
6 | 63% | – | CC(C)NC(=O)N1CCN(c2ccc(Nc3cc(NCc4cccc([N+](=O)[O-])c4)c(C(N)=O)cn3)cc2)CC1 [Example 284, 4-[(3-nitrobenzyl)amino]-6-[(4-{[4-(propan-2-yl)carbamoyl]piperazin-1-yl}phenyl)amino]pyridine-3-carboxyamide]
7 | 71% | – | CCN(CC)C(=O)N1CCC(Nc2ccc(Nc3cc(NCc4ccccc4)c(C(N)=O)cn3)cc2)CC1 [Example 290, 4-(benzylamino)-6-[(4-{[1-(diethylcarbamoyl)piperidin-4-yl]amino}phenyl)amino]pyridine-3-carboxyamide]
8 | 84% | – | CS(=O)(=O)N1CCN(c2ccc(Nc3cc(NCc4cccc(F)c4F)c(C(N)=O)cn3)cc2)CC1 [Example 292, 4-[(2,3-difluorobenzyl)amino]-6-({4-[4-(methylsulfonyl)piperazin-1-yl]phenyl}amino)pyridine-3-carboxyamide]
9 | 71% | – | NC(=O)c1cnc(Nc2ccc(N3CCCS3(=O)=O)cc2)cc1NCc1ccccc1 [Example 307, 4-(benzylamino)-6-{[4-(1,1-dioxo-1,2-thiazolidin-2-yl)phenyl]amino}pyridine-3-carboxyamide]
10 | 60% | – | NC(=O)c1cnc(Nc2ccc(NC(=O)C3CCNCC3)cc2)cc1NCc1cc(F)cc(F)c1 [Example 315, 4-[(3,5-difluorobenzyl)amino]-6-({4-[(piperidin-4-ylcarbonyl)amino]phenyl}amino)pyridine-3-carboxyamide hydrochloride]
11 | 62% | – | NC(=O)c1cnc(Nc2ccc(NC(=O)[C@@H]3CCCN3)cc2)cc1NCc1cc(F)cc(F)c1 [Example 317, 4-[(3,5-difluorobenzyl)amino]-6-{[4-(L-prolylamino)phenyl]amino}pyridine-3-carboxyamide hydrochloride]
12 | 69% | – | NC(=O)c1cnc(Nc2ccc(C(=O)O)cc2)cc1NCc1cc(F)cc(F)c1 [Example 332, 6-[(4-carboxyphenyl)amino]-4-[(3,5-difluorobenzyl)amino]pyridine-3-carboxyamide]

The remaining lines, values behind:

Row | SMILES | inhibition at 0.1 µM | inhibition at 1 µM
13 | N#CCCN1CCN(c2ccc(Nc3cc(NCc4ccccc4)c(C(N)=O)cn3)cc2)CC1 [Example 241] | 70% | –
14 | CN1CCCN(c2ccc(Nc3cc(NCc4ccccc4)c(C(N)=O)cn3)cc2)CC1 [Example 244, 4-(benzylamino)-6-{[4-(4-methyl-1,4-diazepan-1-yl)phenyl]amino}pyridine-3-carboxyamide] | 59% | –
15 | NC(=O)c1cnc(Nc2ccc(N3CCCN(CCO)CC3)cc2)cc1NCc1ccccc1 [Example 245, 4-(benzylamino)-6-({4-[4-(2-hydroxyethyl)-1,4-diazepan-1-yl]phenyl}amino)pyridine-3-carboxyamide] | 62% | –
16 | N#CCC(=O)N1CCN(c2ccc(Nc3cc(NCc4cccc(F)c4F)c(C(N)=O)cn3)cc2)CC1 [Example 263, 6-({4-[4-(cyanoacetyl)piperazin-1-yl]phenyl}amino)-4-[(2,3-difluorobenzyl)amino]pyridine-3-carboxyamide] | 98% | –
17 | N#CCC(=O)N1CCN(c2ccc(Nc3cc(NCc4cc(F)cc(F)c4)c(C(N)=O)cn3)cc2)CC1 [Example 264, 6-({4-[4-(cyanoacetyl)piperazin-1-yl]phenyl}amino)-4-[(3,5-difluorobenzyl)amino]pyridine-3-carboxyamide] | 92% | –
18 | N#CCC(=O)N1CCN(c2ccc(Nc3cc(NCc4cc(F)ccc4F)c(C(N)=O)cn3)cc2)CC1 [Example 265, 6-({4-[4-(cyanoacetyl)piperazin-1-yl]phenyl}amino)-4-[(2,5-difluorobenzyl)amino]pyridine-3-carboxyamide] | 74% | –
19 | N#CCC(=O)N1CCN(c2cccc(Nc3cc(NCc4cc(F)cc(F)c4)c(C(N)=O)cn3)c2)CC1 [Example 267, 6-({3-[4-(cyanoacetyl)piperazin-1-yl]phenyl}amino)-4-[(3,5-difluorodibenzyl)amino]pyridine-3-carboxyamide] | 72% | –
20 | CCN(CC)CC(=O)N1CCN(c2ccc(Nc3cc(NCc4cc(F)cc(F)c4)c(C(N)=O)cn3)cc2)CC1 [Example 275, 6-({4-[4-(N,N-diethylglycyl)piperazin-1-yl]phenyl}amino)-4-[(3,5-difluorobenzyl)amino]pyridine-3-carboxyamide] | 96% | –
21 | CCN(CC)CC(=O)N1CCC(c2ccc(Nc3cc(NCc4ccccc4)c(C(N)=O)cn3)cc2)CC1 [Example 277, 4-(benzylamino)-6-({4-[1-(N,N-diethylglycyl)piperidin-4-yl]phenyl}amino)pyridine-3-carboxyamide] | 70% | –
22 | CCN(CC)C(=O)Nc1ccc(Nc2cc(NCc3ccccc3)c(C(N)=O)cn2)cc1 [Example 279, 4-(benzylamino)-6-({4-[(diethylcarbamoyl)amino]phenyl}amino)pyridine-3-carboxyamide] | 59% | –
23 | CC(C)NC(=O)N1CCN(c2ccc(Nc3cc(NCc4ccccc4)c(C(N)=O)cn3)cc2)CC1 [Example 283] | 79% | –
24 | CS(=O)(=O)N1CCN(c2ccc(Nc3cc(NCc4cc(F)cc(F)c4)c(C(N)=O)cn3)cc2)CC1 [Example 293, 4-[(3,5-difluorobenzyl)amino]-6-({4-[4-(methylsulfonyl)piperazin-1-yl]phenyl}amino)pyridine-3-carboxyamide] | 61% | –
25 | CC(C)S(=O)(=O)Nc1ccc(Nc2cc(NCc3cc(F)cc(F)c3)c(C(N)=O)cn2)cc1 [Example 302, 4-[(3,5-difluorobenzyl)amino]-6-({4-[(propan-2-ylsulfonyl)amino]phenyl}amino)pyridine-3-carboxyamide] | 90% | –
26 | CCN(CC)CCS(=O)(=O)Nc1ccc(Nc2cc(NCc3cc(F)cc(F)c3)c(C(N)=O)cn2)cc1 [Example 304, 6-{[4-({[2-(diethylamino)ethyl]sulfonyl}amino)phenyl]amino}-4-[(3,5-difluorobenzyl)amino]pyridine-3-carboxyamide] | 78% | –
27 | NCCS(=O)(=O)Nc1ccc(Nc2cc(NCc3cc(F)cc(F)c3)c(C(N)=O)cn2)cc1 [Example 305, 6-[(4-{[(2-aminoethyl)sulfonyl]amino}phenyl)amino]-4-[(3,5-difluorobenzyl)amino]pyridine-3-carboxyamide] | 77% | –
28 | NC(=O)c1cnc(Nc2ccc(NC(=O)C3CCNCC3)cc2)cc1NCc1ccccc1 [Example 314, 4-(benzylamino)-6-({4-[piperidin-4-ylcarbonyl]amino]phenyl}amino)pyridine-3-carboxyamide hydrochloride] | 60% | –
29 | NC(=O)c1cnc(Nc2ccc(NC(=O)[C@@H]3CCCN3)cc2)cc1NCc1ccccc1 [Example 316, 4-(benzylamino)-6-({4-(L-prolylamino)phenyl]amino}pyridine-3-carboxyamide hydrochloride] | 61% | –
30 | NC(=O)c1cnc(Nc2ccc(CN3CCOCC3)cc2)cc1NCc1ccccc1 [Example 318, 4-(benzylamino)-6-{[4-(morpholinomethyl)phenyl]amino}pyridine-3-carboxyamide] | 83% | –
31 | NC(=O)c1cnc(Nc2ccc(C(=O)C(F)(F)F)cc2)cc1NCc1cc(F)cc(F)c1 [Example 326, 4-[(3,5-difluorobenzyl)amino]-6-{[(4-trifluoroacetyl)phenyl]amino}pyridine-3-carboxyamide] | 71% | –
32 | NC(=O)c1cnc(Nc2ccc(S(N)(=O)=O)cc2)cc1NCc1cc(F)cc(F)c1 [Example 328, 4-[(3,5-difluorobenzyl)amino]-6-[(4-sulfamoylphenyl)amino]pyridine-3-carboxyamide] | 70% | –
33 | COCCNS(=O)(=O)c1ccc(Nc2cc(NCc3cc(F)cc(F)c3)c(C(N)=O)cn2)cc1 [Example 330, 4-[(3,5-difluorobenzyl)amino]-6-({4-[(2-methoxyethyl)sulfamoyl]phenyl}amino)pyridine-3-carboxyamide] | 59% | –
34 | NC(=O)c1cnc(Nc2ccc(N3CCOCC3)cc2)cc1NC1CCCCC1 [Example 345, 4-cyclohexylamino-6-[(4-morpholinophenyl)amino]pyridine-3-carboxyamide] | – | 79%
35 | CS(=O)(=O)N1CCN(c2ccc(Nc3cc(NC4CCCCC4)c(C(N)=O)cn3)cc2)CC1 [Example 346, 4-cyclohexylamino-6-({4-[4-(methylsulfonyl)piperazin-1-yl]phenyl}amino)pyridine-3-carboxyamide] | – | 72%
36 | CC1CCCCC1Nc1cc(Nc2ccc(N3CCOCC3)cc2)ncc1C(N)=O (stereo not drawn) [Example 349, 4-[(2-methylcyclohexyl)amino]-6-[(4-morpholinophenyl)amino]pyridine-3-carboxyamide] | – | 90%
